{"source": "ChEMBL document CHEMBL5608195", "about": "“Identification and biological evaluation of fused tetrahydroisoquinoline derivatives as Wnt/β-catenin signaling inhibitors to suppress colorectal cancer” (Eur J Med Chem, 2024)", "key": {"[1]": {"assay": "Toxicity in male BALB/c mouse xenografted with human HCT-116 cells assessed as effect on serum ALT level at 10 to 40 mg/kg, ip by biochemical analysis", "type": "organism-based", "details": "in vivo, dose 10-40 mg/kg"}, "[2]": {"assay": "Toxicity in Kunming mouse assessed as drug tolerance at 200 to 400 mg/kg, ip", "type": "organism-based", "details": "in vivo, dose 200-400 mg/kg"}, "RKO [3]": {"tested_on": "RKO", "assay": "Antiproliferative activity against human RKO cells assessed as inhibition of DNA replication at 10 uM incubated for 22 hrs by fluorescence based microscopic analysis", "type": "functional, cell-based"}, "RKO [4]": {"tested_on": "RKO", "assay": "Induction of cell cycle arrest in human RKO cells assessed as downregulation of c-Myc protein level by Western blot analysis", "type": "functional, cell-based"}, "[5]": {"assay": "Toxicity in male BALB/c mouse xenografted with human HCT-116 cells assessed as histological change in kidney at 10 to 40 mg/kg, ip by H and E staining based optical microscopic analysis", "type": "organism-based", "details": "in vivo, dose 10-40 mg/kg"}, "RKO [6]": {"tested_on": "RKO", "assay": "Inhibition of Wnt/beta-catenin signaling pathway in human RKO cells assessed as induction of beta-catenin degradation in presence of MG132 by Western blot analysis", "type": "cell-based"}, "HCT-116 [7]": {"tested_on": "HCT-116", "assay": "Inhibition of colony formation in human HCT-116 cells incubated for 24 hrs by crystal violet staining based analysis", "type": "functional, cell-based", "details": "dose 6-10 µM"}, "HCT-116 [8]": {"tested_on": "HCT-116", "assay": "Inhibition of Wnt/beta-catenin signaling pathway in human HCT-116 cells assessed as downregulation of beta-catenin expression incubated for 24 hrs by qRT-PCR analysis", "type": "cell-based", "details": "dose <= 10.0 µM"}, "HCT-116 [9]": {"tested_on": "HCT-116", "assay": "Antiproliferative activity against human HCT-116 cells assessed as inhibition of DNA replication at 10 uM incubated for 22 hrs by fluorescence based microscopic analysis", "type": "functional, cell-based"}, "[10]": {"assay": "Toxicity in male BALB/c mouse xenografted with human HCT-116 cells assessed as effect on body weight at 10 to 40 mg/kg, ip measured every two days for upto 20 days", "type": "organism-based", "details": "in vivo, 480 h, dose 10-40 mg/kg, time < 20 day"}, "Homo sapiens [11]": {"species": "Homo sapiens", "assay": "Binding affinity to recombinant N-terminal GST-tagged human HSP90 (1 to 224 residues) extracted from Escherichia coli BL21 (DE3) cells at 200 uM in presence of biotin probe 1 by pulldown analysis"}, "HCT-116 [12]": {"tested_on": "HCT-116", "assay": "Antitumor activity against human HCT-116 cells xenografted in male BALB/c mouse assessed as induction of apoptosis by measuring increase cleaved-caspase-3 protein level at 10 to 40 mg/kg, ip by Immunohistochemical staining based analysis", "type": "functional, organism-based", "details": "dose 10-40 mg/kg"}, "[13]": {"assay": "Half life in male ICR (CD-1) mouse at 20 mg/kg, po measured upto 24 hrs by LC-MS/MS analysis", "type": "ADME, organism-based", "details": "in vivo"}, "[14]": {"assay": "Toxicity in Kunming mouse assessed as behavioural changes at 200 to 400 mg/kg, ip", "type": "organism-based", "details": "in vivo, dose 200-400 mg/kg"}, "[15]": {"assay": "Toxicity in male BALB/c mouse xenografted with human HCT-116 cells assessed as effect on serum ALP level at 10 to 40 mg/kg, ip by biochemical analysis", "type": "organism-based", "details": "in vivo, dose 10-40 mg/kg"}, "HCT-116 [16]": {"tested_on": "HCT-116", "assay": "Inhibition of Hsp90/beta-catenin in human HCT-116 cells at 6 to 10 uM incubated for 24 hrs by co-immunoprecipitation analysis", "type": "cell-based", "details": "dose 6-10 µM"}, "[17]": {"assay": "Toxicity in male BALB/c mouse xenografted with human HCT-116 cells assessed as effect on serum uric acid level at 10 to 40 mg/kg, ip by biochemical analysis", "type": "organism-based", "details": "in vivo, dose 10-40 mg/kg"}, "[18]": {"assay": "Toxicity in male BALB/c mouse xenografted with human HCT-116 cells assessed as histological change in liver at 10 to 40 mg/kg, ip by H and E staining based optical microscopic analysis", "type": "organism-based", "details": "in vivo, dose 10-40 mg/kg"}, "HCT-116 [19]": {"tested_on": "HCT-116", "assay": "Induction of cell cycle arrest in human HCT-116 cells assessed as upregulation of P21 protein level by Western blot analysis", "type": "functional, cell-based"}, "[20]": {"assay": "AUC (0 to infinity) in male ICR (CD-1) mouse at 10 mg/kg, ip measured upto 24 hrs by LC-MS/MS analysis", "type": "ADME, organism-based", "details": "in vivo"}, "[21]": {"assay": "Bioavailability in male ICR (CD-1) mouse at 10 mg/kg, ip measured upto 24 hrs by LC-MS/MS analysis", "type": "ADME, organism-based", "details": "in vivo"}, "HCT-116 [22]": {"tested_on": "HCT-116", "assay": "Antiproliferative activity against human HCT-116 cells assessed as inhibition rate at 20 uM incubated for 24 hrs by MTT assay relative to control", "type": "functional"}, "RKO [23]": {"tested_on": "RKO", "assay": "Inhibition of colony formation human RKO cells incubated for 24 hrs by crystal violet staining based analysis", "type": "functional, cell-based", "details": "dose 6-10 µM"}, "RKO [24]": {"tested_on": "RKO", "assay": "Induction of cell cycle arrest in human RKO cells assessed as downregulation of Cyclin B1 protein level by Western blot analysis", "type": "functional, cell-based"}, "[25]": {"assay": "Toxicity in male BALB/c mouse xenografted with human HCT-116 cells assessed as effect on serum urea level at 10 to 40 mg/kg, ip by biochemical analysis", "type": "organism-based", "details": "in vivo, dose 10-40 mg/kg"}, "[26]": {"assay": "Cmax in male ICR (CD-1) mouse at 20 mg/kg, po measured upto 24 hrs by LC-MS/MS analysis", "type": "ADME, organism-based", "details": "in vivo"}, "HCT-116 [27]": {"tested_on": "HCT-116", "assay": "Induction of cell cycle arrest in human HCT-116 cells assessed as accumulation of cells at G2/M phase incubated for 24 hrs by PI staining based flow cytometry", "type": "functional", "details": "dose 6-10 µM"}, "[28]": {"assay": "Toxicity in male BALB/c mouse xenografted with human HCT-116 cells assessed as effect on serum creatinine level at 10 to 40 mg/kg, ip by biochemical analysis", "type": "organism-based", "details": "in vivo, dose 10-40 mg/kg"}, "RKO [29]": {"tested_on": "RKO", "assay": "Induction of cell cycle arrest in human RKO cells assessed as accumulation of cells at S phase incubated for 24 hrs by PI staining based flow cytometry", "type": "functional", "details": "dose 6-10 µM"}, "RKO [30]": {"tested_on": "RKO", "assay": "Induction of cell cycle arrest in human RKO cells assessed as accumulation of cells at G2/M phase incubated for 24 hrs by PI staining based flow cytometry", "type": "functional", "details": "dose 6-10 µM"}, "[31]": {"assay": "AUC (0 to infinity) in male ICR (CD-1) mouse at 20 mg/kg, po measured upto 24 hrs by LC-MS/MS analysis", "type": "ADME, organism-based", "details": "in vivo"}, "HCT-116 [32]": {"tested_on": "HCT-116", "assay": "Induction of cell cycle arrest in human HCT-116 cells assessed as downregulation of CDK1 protein level by Western blot analysis", "type": "functional, cell-based"}, "HCT-116 [33]": {"tested_on": "HCT-116", "assay": "Antiproliferative activity against human HCT-116 cells assessed as inhibition of DNA proliferation at 10 uM incubated for 22 hrs by fluorescence based microscopic analysis", "type": "functional, cell-based"}, "RKO [34]": {"tested_on": "RKO", "assay": "Induction of cell cycle arrest in human RKO cells assessed as downregulation of Cyclin A2 protein level by Western blot analysis", "type": "functional, cell-based"}, "RKO [35]": {"tested_on": "RKO", "assay": "Induction of cell cycle arrest in human RKO cells assessed as downregulation of Cyclin D1 protein level by Western blot analysis", "type": "functional, cell-based"}, "Homo sapiens [36]": {"species": "Homo sapiens", "assay": "Induction of human HSP90 stabilization assessed as protection against pronase E-mediated hydrolysis at 25 to 50 uM incubated for 1 hr by DART assay", "details": "dose 25-50 µM"}, "[37]": {"assay": "Tmax in male ICR (CD-1) mouse at 10 mg/kg, ip measured upto 24 hrs by LC-MS/MS analysis", "type": "ADME, organism-based", "details": "in vivo"}, "RKO [38]": {"tested_on": "RKO", "assay": "Induction of cell cycle arrest in human RKO cells assessed as downregulation of CDK1 protein level by Western blot analysis", "type": "functional, cell-based"}, "[39]": {"assay": "Clearance in male ICR (CD-1) mouse at 5 mg/kg, iv measured upto 24 hrs by LC-MS/MS analysis", "type": "ADME, organism-based", "details": "in vivo"}, "[40]": {"assay": "Oral bioavailability in male ICR (CD-1) mouse at 20 mg/kg measured upto 24 hrs by LC-MS/MS analysis", "type": "ADME, organism-based", "details": "in vivo"}}, "note": "The source made the active and inactive calls. No cut-off for these calls is given here.", "data": [{"smiles": "CC12c3ccc(Cl)cc3CCN1CCc1c2[nH]c2ccc(Cl)cc12", "note": "(stereo not given)", "values": [{"measurement": "Activity", "setting": "[1]", "result": "Non-Toxic"}, {"measurement": "Activity", "setting": "[2]", "result": "Non-Toxic"}, {"measurement": "Activity", "setting": "RKO [3]", "result": "Active"}, {"measurement": "Activity", "setting": "RKO [4]", "result": "Dose-Dependent Effect"}, {"measurement": "Activity", "setting": "[5]", "result": "Non-Toxic"}, {"measurement": "inhibition", "setting": "RKO [6]", "result": "inactive"}, {"measurement": "inhibition", "setting": "HCT-116 [7]", "result": "Dose-Dependent Effect"}, {"measurement": "inhibition", "setting": "HCT-116 [8]", "result": "Dose-Dependent Effect"}, {"measurement": "Activity", "setting": "HCT-116 [9]", "result": "Active"}, {"measurement": "Activity", "setting": "[10]", "result": "Non-Toxic"}, {"measurement": "Activity", "setting": "Homo sapiens [11]", "result": "Active"}, {"measurement": "Activity", "setting": "HCT-116 [12]", "result": "Active"}, {"measurement": "half-life", "setting": "[13]", "result": 2.6, "unit": "h"}, {"measurement": "Activity", "setting": "[14]", "result": "Non-Toxic"}, {"measurement": "Activity", "setting": "[15]", "result": "Non-Toxic"}, {"measurement": "inhibition", "setting": "HCT-116 [16]", "result": "Dose-Dependent Effect"}, {"measurement": "Activity", "setting": "[17]", "result": "Non-Toxic"}, {"measurement": "Activity", "setting": "[18]", "result": "Non-Toxic"}, {"measurement": "Activity", "setting": "HCT-116 [19]", "result": "Dose-Dependent Effect"}, {"measurement": "AUC(0-inf)", "setting": "[20]", "result": 2900, "unit": "ng·h/mL"}, {"measurement": "bioavailability", "setting": "[21]", "result": 97, "unit": "%"}, {"measurement": "inhibition at 20 µM", "setting": "HCT-116 [22]", "result": 89.2, "unit": "%"}, {"measurement": "inhibition", "setting": "RKO [23]", "result": "Dose-Dependent Effect"}, {"measurement": "Activity", "setting": "RKO [24]", "result": "Dose-Dependent Effect"}, {"measurement": "Activity", "setting": "[25]", "result": "Non-Toxic"}, {"measurement": "Cmax", "setting": "[26]", "result": 832, "unit": "ng/mL"}, {"measurement": "Activity", "setting": "HCT-116 [27]", "result": "Dose-Dependent Effect"}, {"measurement": "Activity", "setting": "[28]", "result": "Non-Toxic"}, {"measurement": "Activity", "setting": "RKO [29]", "result": "Dose-Dependent Effect"}, {"measurement": "Activity", "setting": "RKO [30]", "result": "Dose-Dependent Effect"}, {"measurement": "AUC(0-inf)", "setting": "[31]", "result": 2720, "unit": "ng·h/mL"}, {"measurement": "Activity", "setting": "HCT-116 [32]", "result": "Dose-Dependent Effect"}, {"measurement": "Activity", "setting": "HCT-116 [33]", "result": "Active"}, {"measurement": "Activity", "setting": "RKO [34]", "result": "Dose-Dependent Effect"}, {"measurement": "Activity", "setting": "RKO [35]", "result": "Dose-Dependent Effect"}, {"measurement": "Activity", "setting": "Homo sapiens [36]", "result": "Active"}, {"measurement": "Tmax", "setting": "[37]", "result": 0.25, "unit": "h"}, {"measurement": "Activity", "setting": "RKO [38]", "result": "Dose-Dependent Effect"}, {"measurement": "clearance", "setting": "[39]", "result": 56.1, "unit": "mL/min/kg"}, {"measurement": "bioavailability", "setting": "[40]", "result": 40, "unit": "%"}]}]}
